# Values of other authors, collected in article PMC6915728 (Nature Communications, 2019).
# Where two headings read alike, the source gives them in different places.
# Tests used:
# E. coli = settings: previous laboratory evolution experiment; cited from earlier work
# Source text: The results presented in this study may have important implications for the development of AMP-based therapies. Previous works reported several instances of cross-resistance interactions between membrane-targeting peptides (Supplementary Data 1), however, the potential for cross-resistance across AMPs with different modes of action has remained poorly understood. Specifically, while cross-resistance between host and therapeutic AMPs is certainly a realistic danger, not all AMPs are equally prone to cross-resistance. Given the immense diversity of AMPs with major differences in physicochemical ...
# [1] = tested on: AMP-evolved E. coli lines; settings: ref Spohn et al 2019, cited from earlier work
# Source text: Supplement 41467_2019_13618_MOESM13_ESM.xlsx, sheet "Figure 6 and S15" | column: A comprehensive dataset of antimicrobial susceptibility of AMP-adapted lines to antimicrobial peptides (AMPs).
sequence,measurement,setting,value
"RWCFRVCYRGICYRKCR [TPII, Tachyplesin II, antimicrobial peptide from Japanese horseshoe crab; disrupts cell membrane; cluster C1]",Emergence of resistant lines in laboratory evolution,E. coli,did not result in any significant resistant lines
same,Relative change in MIC (MIC of the AMP-adpated line / MIC of the ancestral strain),[1]; AMP-adapted line BAC5_3,1
same,Relative change in MIC (MIC of the AMP-adpated line / MIC of the ancestral strain),[1]; AMP-adapted line BAC5_5,1
same,Relative change in MIC (MIC of the AMP-adpated line / MIC of the ancestral strain),[1]; AMP-adapted line BAC5_7,1.1
same,Relative change in MIC (MIC of the AMP-adpated line / MIC of the ancestral strain),[1]; AMP-adapted line BAC5_10,1.1
same,Relative change in MIC (MIC of the AMP-adpated line / MIC of the ancestral strain),[1]; AMP-adapted line CAP18_2,1.1
same,Relative change in MIC (MIC of the AMP-adpated line / MIC of the ancestral strain),[1]; AMP-adapted line CAP18_5,1
same,Relative change in MIC (MIC of the AMP-adpated line / MIC of the ancestral strain),[1]; AMP-adapted line CAP18_6,1
same,Relative change in MIC (MIC of the AMP-adpated line / MIC of the ancestral strain),[1]; AMP-adapted line CAP18_8,1.1
same,Relative change in MIC (MIC of the AMP-adpated line / MIC of the ancestral strain),[1]; AMP-adapted line CAP18_10,1
same,Relative change in MIC (MIC of the AMP-adpated line / MIC of the ancestral strain),[1]; AMP-adapted line HBD3_3,1.2
same,Relative change in MIC (MIC of the AMP-adpated line / MIC of the ancestral strain),[1]; AMP-adapted line HBD3_6,1.2
same,Relative change in MIC (MIC of the AMP-adpated line / MIC of the ancestral strain),[1]; AMP-adapted line HBD3_8,1.2
same,Relative change in MIC (MIC of the AMP-adpated line / MIC of the ancestral strain),[1]; AMP-adapted line HBD3_10,1.2
same,Relative change in MIC (MIC of the AMP-adpated line / MIC of the ancestral strain),[1]; AMP-adapted line LL37_1,1.1
same,Relative change in MIC (MIC of the AMP-adpated line / MIC of the ancestral strain),[1]; AMP-adapted line LL37_3,1.1
same,Relative change in MIC (MIC of the AMP-adpated line / MIC of the ancestral strain),[1]; AMP-adapted line LL37_6,1
same,Relative change in MIC (MIC of the AMP-adpated line / MIC of the ancestral strain),[1]; AMP-adapted line LL37_7,1
same,Relative change in MIC (MIC of the AMP-adpated line / MIC of the ancestral strain),[1]; AMP-adapted line LL37_10,1
same,Relative change in MIC (MIC of the AMP-adpated line / MIC of the ancestral strain),[1]; AMP-adapted line PEX_1,1.1
same,Relative change in MIC (MIC of the AMP-adpated line / MIC of the ancestral strain),[1]; AMP-adapted line PEX_4,1.2
same,Relative change in MIC (MIC of the AMP-adpated line / MIC of the ancestral strain),[1]; AMP-adapted line PEX_5,1.1
same,Relative change in MIC (MIC of the AMP-adpated line / MIC of the ancestral strain),[1]; AMP-adapted line PEX_6,1
same,Relative change in MIC (MIC of the AMP-adpated line / MIC of the ancestral strain),[1]; AMP-adapted line PEX_7,1
same,Relative change in MIC (MIC of the AMP-adpated line / MIC of the ancestral strain),[1]; AMP-adapted line PR39_1,1
same,Relative change in MIC (MIC of the AMP-adpated line / MIC of the ancestral strain),[1]; AMP-adapted line PR39_2,0.9
same,Relative change in MIC (MIC of the AMP-adpated line / MIC of the ancestral strain),[1]; AMP-adapted line PR39_5,0.9
same,Relative change in MIC (MIC of the AMP-adpated line / MIC of the ancestral strain),[1]; AMP-adapted line PR39_7,0.9
same,Relative change in MIC (MIC of the AMP-adpated line / MIC of the ancestral strain),[1]; AMP-adapted line PR39_10,0.9
same,Relative change in MIC (MIC of the AMP-adpated line / MIC of the ancestral strain),[1]; AMP-adapted line PROA_2,1.1
same,Relative change in MIC (MIC of the AMP-adpated line / MIC of the ancestral strain),[1]; AMP-adapted line PROA_3,0.8
same,Relative change in MIC (MIC of the AMP-adpated line / MIC of the ancestral strain),[1]; AMP-adapted line PROA_7,1
same,Relative change in MIC (MIC of the AMP-adpated line / MIC of the ancestral strain),[1]; AMP-adapted line PROA_8,1
same,Relative change in MIC (MIC of the AMP-adpated line / MIC of the ancestral strain),[1]; AMP-adapted line PROA_9,1.1
same,Relative change in MIC (MIC of the AMP-adpated line / MIC of the ancestral strain),[1]; AMP-adapted line PXB_2,1.1
same,Relative change in MIC (MIC of the AMP-adpated line / MIC of the ancestral strain),[1]; AMP-adapted line PXB_5,1
same,Relative change in MIC (MIC of the AMP-adpated line / MIC of the ancestral strain),[1]; AMP-adapted line PXB_6,1.1
same,Relative change in MIC (MIC of the AMP-adpated line / MIC of the ancestral strain),[1]; AMP-adapted line PXB_8,1
same,Relative change in MIC (MIC of the AMP-adpated line / MIC of the ancestral strain),[1]; AMP-adapted line PXB_10,1.1
